Measured values taken from ChEMBL document CHEMBL1131285, “Quinolines as potent 5-lipoxygenase inhibitors: synthesis and biological profile of L-746,530” (Bioorg Med Chem Lett, 1998).

Key:
[1] = species on record: Homo sapiens; assay: Compound was evaluated for in vitro inhibition of leukotriene (LTB4) in human whole blood (HWB); type: functional
[2] = Compound was evaluated for in vitro inhibition of leukotriene (LTB4) in human peripheral blood polymorphonuclear leukocytes (HPMN); type: functional
[3] = biological target: T1, Polyunsaturated fatty acid 5-lipoxygenase (Homo sapiens, UniProt P09917); assay: Compound was evaluated for in vitro inhibition of recombinant human 5-lipoxygenase (5-LO)
T1 sequence (P09917 whole entry): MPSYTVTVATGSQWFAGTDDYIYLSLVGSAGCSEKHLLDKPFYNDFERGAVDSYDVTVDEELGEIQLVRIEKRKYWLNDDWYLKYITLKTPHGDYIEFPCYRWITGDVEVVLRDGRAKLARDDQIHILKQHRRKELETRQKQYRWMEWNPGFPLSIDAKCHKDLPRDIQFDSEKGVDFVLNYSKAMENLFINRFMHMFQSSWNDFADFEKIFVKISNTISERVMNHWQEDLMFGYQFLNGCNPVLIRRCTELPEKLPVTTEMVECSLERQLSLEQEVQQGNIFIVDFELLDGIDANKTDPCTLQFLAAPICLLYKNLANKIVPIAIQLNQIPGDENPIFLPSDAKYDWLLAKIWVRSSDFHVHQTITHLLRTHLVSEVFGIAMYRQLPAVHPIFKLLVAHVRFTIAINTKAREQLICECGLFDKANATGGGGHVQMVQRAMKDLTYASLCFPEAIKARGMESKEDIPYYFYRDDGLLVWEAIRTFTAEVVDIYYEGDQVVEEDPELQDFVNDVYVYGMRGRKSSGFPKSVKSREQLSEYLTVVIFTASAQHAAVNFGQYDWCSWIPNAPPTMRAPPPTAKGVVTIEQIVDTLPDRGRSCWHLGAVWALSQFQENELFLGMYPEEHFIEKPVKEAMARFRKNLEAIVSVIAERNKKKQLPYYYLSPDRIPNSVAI

[4] = tested on: Rattus norvegicus; assay: The effect on the biosynthesis of leukotriene B4 in vivo was evaluated in the rat pleural cavity using a carrageenan-induced model of inflammation after oral administration at 6 hr; type: functional

`N#Cc1cc(-c2ccoc2)c2ccc(OCc3cccc(C4(O)CC5COC(C4)O5)c3)cc2n1` (stereo not given) showed an IC50 [1] of 287 nM, an IC50 [2] of 10 nM and an IC50 [3] of over 3000 nM.

Work on `OC1(c2cccc(COc3ccc4c(-c5ccoc5)cncc4c3)n2)CC2COC(C1)O2` (stereo not given) yielded an IC50 [1] of 90 nM, an IC50 [2] of 10.3 nM and an IC50 [3] of 1460 nM.

`N#Cc1cc(-c2ccoc2)c2ccc(OCc3cccc(C4(O)CC5COC(C4)O5)n3)cc2n1` (stereo not given) showed an IC50 [1] of 103 nM, an IC50 [2] of 4 nM and an IC50 [3] of 36 nM.

For `N#Cc1cc(-c2ccoc2)c2ccc(COc3cc(F)cc(C4(O)CC5COC(C4)O5)c3)cc2n1` (stereo not given), the ED50 [4] was under 0.1 mg/kg.

For `O=c1cc(-c2ccoc2)c2ccc(OCc3cccc(C4(O)CC5COC(C4)O5)n3)cc2n1Cc1ccccc1` (stereo not given), the IC50 [1] was 160 nM, the IC50 [2] was 5.8 nM and the IC50 [3] was 102 nM.

Compound `N#Cc1cc(-c2ccoc2)c2ccc(OCc3cccc(C4(O)CC5COC(C4)O5)n3)cc2c1` (stereo not given) has an IC50 [2] of 1.6 nM.

For `N#Cc1cc(-c2ccoc2)c2ccc(CSc3cc(F)cc(C4(O)CC5COC(C4)O5)c3)cc2n1` (stereo not given), the IC50 [1] was 193 nM, the IC50 [2] was 6 nM and the IC50 [3] was 124 nM.

`N#Cc1cc2cc(OCc3cccc(C4(O)CC5COC(C4)O5)n3)ccc2c(-c2ccoc2)n1` (stereo not given) gave an IC50 [1] of 47 nM, an IC50 [2] of 18 nM and an IC50 [3] of 1960 nM.
